How the values were obtained:
[1] = system: cultured rat hippocampal neurons; experiment: Photoconversion with field electrode stimulation in neurons expressing CaMPARI; type: cell-based; conditions: 83 Hz action potentials at the beginning of a 2 s photoconversion pulse
Description: First, cultured rat hippocampal neurons were prepared and infected with lentivirus expressing CaMPARI from the human synapsin promoter. The neurons were imaged ten days after infection with a 10× objective before and after various combinations of photoconversion and field electrode-induced action potential firing. Prior to imaging, the neuron cultures were washed with imaging buffer and spontaneous activity was blocked with a drug mix.
Following a 2 s pulse of photoconversion light (1.5 W/cm^2) to CaMPARI-expressing neurons, there was no significant decrease in green fluorescence and a small amount of red fluorescence was visible (FIG. 13A). […] Repeated exposures of CaMPARI-expressing neurons to shorter photoconversion light pulses (0.5 s) led to increasing amounts of red fluorescence signal (FIG. 16A) and red/green ratio (two left bars in FIG. 16B), but the ratio of red-to-green photoconversion between 80 Hz field stimulated and unstimulated neurons remained approximately constant (right-most bars in FIG. 16B). Field electrode stimulation of CaMPARI-expressing neurons (without application of photoconversion light) led to transient decreases in the green fluorescence signal, proportional to the number of induced action potentials (FIG. 17).

[2] = Calcium titration of purified CaMPARI protein, fluorescence in plate reader; type: binding
Description: (§1) This Example describes procedures performed to characterize the in vitro properties of the fluorescent proteins. First, CaMPARI protein was expressed from the pRSET plasmid (Life Technologies, Carlsbad, Calif.) in T7 Express E. coli cells cultured for 36 h in 100 mL of autoinduction medium supplemented with 100 mg/L ampicillin. Cell pellets were lysed using B-PER (Pierce, Rockford, Ill.) supplemented with 1 mg/mL lysozyme and 1 min. of sonication. After removing insoluble material by centrifugation, CaMPARI protein was purified by immobilized metal affinity chromatograpy on nickel-charged Profinity resin (Bio-Rad, Hercules, Calif.), washing with 10 mM imidazole and eluting with 100 mM imidazole.
(§2) Using these samples, calcium titrations were used to calculate an apparent affinity of the protein for calcium ions. Aliquots of purified CaMPARI protein were mixed with Ca-EGTA solutions calculated to contain a range of free Ca^2+ ions (Life Technologies) and fluorescence was measured in a plate reader. Furthermore, to observe the photoconversion rate difference+/−calcium, purified CaMPARI in 5 mM CaCl2 or 5 mM EGTA were photoconverted using a 400 nm LED array and green and red fluorescence was measured at various time points to fit an exponential rate to the appearance of red fluorescence or the disappearance of green fluorescence.

[3] = Photoconversion rate difference +/- calcium of purified CaMPARI (400 nm LED array); conditions: purified protein, 5 mM CaCl2 vs 5 mM EGTA
Description: as §1, §2

[4] = Fluorescence of purified CaMPARI green and red forms +/- calcium; conditions: purified protein
Description: as §1, §2

[5] = Kinetics of fluorescence decay upon calcium release, rapid mixing with EGTA in stopped-flow device; type: binding
Description: (§3) Other CaMPARI variants were constructed and there include V398L, W391F+V398L, W391F, W391L, V398T, G395D, W391Y, W391Y+V398T, V398D, W391F+G395D, W391F+V398H. The variants were made based on substitutions within the M13 domain of CaMPARI that alter the affinity, cooperativity and kinetics and calcium binding. The magnitude of fluorescence change was similar for all variants. Dissociation constants for calcium (Kd) and Hill coefficients were determined from a sigmoidal fit to calcium titration data. Kinetics of fluorescence decay upon calcium release were determined by rapid mixing with EGTA in a stopped-flow device.

[6] = Calcium titration of CaMPARI M13-domain variants, sigmoidal fit; type: binding; conditions: dissociation constant for calcium, sigmoidal fit to calcium titration data
Description: as §3

Q: Which “more green-to-red photoconversion for 160 action potentials relative to 0” value [1] does the source give for “CaMPARI v1: isolated polypeptide comprising CaM, EosFP, and M13, SEQ ID NO: 1; Calcium-Modulated Photoactivatable Ratiometric Integrator” here?
A: The value was “up to 12 fold”.

Q: And the Kd ([2]; purified protein, without N-terminal NES, estimated from fluorescence change with increasing calcium, read-out: dissociation constant (Kd))?
A: Its Kd is 130 nM.

Q: And the Kd ([2]; with nuclear export signal (NES) added to the N-terminus, read-out: Kd)?
A: The Kd was 106 nM.

Q: What about the “faster green-to-red photoconversion rate in the presence of calcium” value [3] of the same substance?
A: Its value is 29 fold.

Q: And the “green form less fluorescent in the presence of calcium” value ([4]; green form)?
A: The value was 8 fold.

Q: And the “red form less fluorescent in the presence of calcium” value ([4]; red form)?
A: The value was 34 fold.

Q: And the koff [5]?
A: The koff was 0.25 s⁻¹.

Q: And the Kd [6]?
A: The Kd was 111 nM.

Reference: patent US10041935B2, “Identification of olfactory receptors sensitive to different odorants” (New York University, priority 2013, dated 2018)
